Measurements published in patent US12365692B2, “6-hydroxy-8-oxatricyclo[3.2.1.02,4]octane-2-carboxamide derivatives for inducing chondrogenesis for treating joint damage” (NOVARTIS AG, priority 2018, dated 2025).
Read-outs that look alike come from different tables or passages of the source.

Test system: ALP in NHAC (normal human articular chondrocytes)
Assay: Alkaline Phosphatase (ALP) activity assay: ALP staining and quantitation in NHACs (prevention of chondrocyte hypertrophy)
Type: cell-based
Conditions: human IL-1 beta 10 ng/mL, 12 days; for IC50: Fast Blue RR staining, high content imaging
Method: The compounds of the present invention were evaluated in the Alkaline Phosphatase (ALP) activity assay to determine the ability of the compounds to prevent chondrocyte hypertrophy in normal human articular chondrocytes (NHACs).
Normal human articular chondrocytes (NHACs) were purchased from PromoCell (Heidelberg, Germany) and grown in Chondrocyte Growth Medium (CGM; Lonza, Walkersville, Md.).
NHACs were expanded in Chondrocyte Growth Medium (CGM) from Lonza until they reached a 60-80% confluency. To initiate differentiation, 7,500 cells were plated/well with indicated test compound dose in 384-well Cell Carrier Ultra plates (Perkin Elmer) with DMEM (SH30022—HyClone) containing 10% FBS (35-015-CV—Corning), 1% Pen/Strep antibiotics (SV30010—HyClone), and 1% Normocin (50 mg/mL—InvivoGen). Cells with test compounds were incubated at 37° C., 5% CO2 for 5 hours and then added human IL-1 beta (AF-200-1B—Peprotech) to each well at a final concentration of 10 ng/mL and incubated at 37° C., 5% CO2 for 12 days.
To detect the presence of hypertrophic cells, NHACs were fixed with 4% paraformaldehyde and Hoechst 33342 (Invitrogen) dye for 30 minutes, rinsed in PBS, then stained with Fast Blue RR Salt (F0500—Sigma) with Naphthol AS-MX Phosphate Alkaline Solution, 0.25% (855—Sigma-Aldrich).
The staining was imaged by fluoresecent microscopy, using the 561 nm wavelength, and/or quantified by high content imaging with the ImageXpress Confocal (Molecular Devices, Sunnyvale, CA). Data analyses were performed with a customized multiwavelength cell-scoring application The activity of the compounds of the present invention in the ALP assay is summarized in Table 2.

[1] = Chondrocyte, 288 h, read-out: ALP in NHAC (% Efficacy)

| Compound | IC50 (Chondrocyte, 288 h) [µM] | Emax [1] [%] | Emax | IC50 [µM] |
| --- | --- | --- | --- | --- |
| COc1cc([C@@]23C[C@]2(C(=O)Nc2cc(C(F)(F)F)ccc2C#N)[C@H]2C[C@H](O)[C@@H]3O2)ccn1 (racemic) [Example 39, rac-(1R,2R,4S,5R,6S)—N-(2-cyano-5-(trifluoromethyl)phenyl)-6-hydroxy-4-(2-methoxypyridin-4-yl)-8-oxatricyclo[3.2.1.02,4]octane-2-carboxamide] | 0.081 | 92 | – | – |
| COc1cc([C@@]23C[C@]2(C(=O)Nc2ccc(OC)c(C(F)(F)F)c2)[C@H]2C[C@H](O)[C@@H]3O2)ccn1 (racemic) [Example 34, rac-(1R,2R,4S,5R,6S)-6-hydroxy-N-(4-methoxy-3-(trifluoromethyl)phenyl)-4-(2-methoxypyridin-4-yl)-8-oxatricyclo[3.2.1.02,4]octane-2-carboxamide] | > 30 | 0 | – | – |
| (1R,2R,4S,5R,6S)—N-(2-cyano-5-(trifluoromethyl)phenyl)-6-hydroxy-4-(2-methoxypyridin-4-yl)-8-oxatricyclo[3.2.1.02,4]octane-2-carboxamide or (1S,2S,4R,5S,6R)—N-(2-cyano-5-(trifluoromethyl)phenyl)-6-hydroxy-4-(2-methoxypyridin-4-yl)-8-oxatricyclo[3.2.1.02,4]octane-2-carboxamide [Example 39a] | – | – | (90) % | 0.29 |
| (1R,2R,4S,5R,6S)—N-(2-cyano-5-(trifluoromethyl)phenyl)-6-hydroxy-4-(2-methoxypyridin-4-yl)-8-oxatricyclo[3.2.1.02,4]octane-2-carboxamide or (1S,2S,4R,5S,6R)—N-(2-cyano-5-(trifluoromethyl)phenyl)-6-hydroxy-4-(2-methoxypyridin-4-yl)-8-oxatricyclo[3.2.1.02,4]octane-2-carboxamide [Example 39b] | – | – | (97) % | 0.25 |
| Cc1ccc(NC(=O)[C@]23C[C@@]2(c2cn(C)nc2C(F)(F)F)[C@H]2O[C@@H]3C[C@@H]2O)cc1C(F)(F)F (racemic) [Example 51, rac-(1R,2R,4S,5R,6S)-6-hydroxy-4-(1-methyl-3-(trifluoromethyl)-1H-pyrazol-4-yl)-N-(4-methyl-3-(trifluoromethyl)phenyl)-8-oxatricyclo[3.2.1.02,4]octane-2-carboxamide] | > 30 | 45 | – | – |
| Cn1cc([C@@]23C[C@]2(C(=O)Nc2cc(C(F)(F)F)cc(Cl)n2)[C@H]2C[C@H](O)[C@@H]3O2)c(C(F)(F)F)n1 (racemic) [Example 44, rac-(1R,2R,4S,5R,6S)—N-(6-chloro-4-(trifluoromethyl)pyridin-2-yl)-6-hydroxy-4-(1-methyl-3-(trifluoromethyl)-1H-pyrazol-4-yl)-8-oxatricyclo[3.2.1.02,4]octane-2-carboxamide] | > 30 | 37 | – | – |
| Cn1cc([C@@]23C[C@]2(C(=O)Nc2cccc(C(F)(F)F)c2F)[C@H]2C[C@H](O)[C@@H]3O2)c(C(F)(F)F)n1 (racemic) [Example 54, rac-(1R,2R,4S,5R,6S)—N-(2-fluoro-3-(trifluoromethyl)phenyl)-6-hydroxy-4-(1-methyl-3-(trifluoromethyl)-1H-pyrazol-4-yl)-8-oxatricyclo[3.2.1.02,4]octane-2-carboxamide] | > 30 | 7 | – | – |
| Cn1cc([C@@]23C[C@]2(C(=O)Nc2cc(C(F)(F)F)cc(C(F)(F)F)c2)[C@H]2C[C@H](O)[C@@H]3O2)c(C(F)(F)F)n1 (racemic) [Example 63, rac-(1R,2R,4S,5R,6S)—N-(3,5-bis(trifluoromethyl)phenyl)-6-hydroxy-4-(1-methyl-3-(trifluoromethyl)-1H-pyrazol-4-yl)-8-oxatricyclo[3.2.1.02,4]octane-2-carboxamide] | 29 | 56 | – | – |
| O=C(Nc1cc(C(F)(F)F)cc(C2CC2)n1)[C@]12C[C@@]1(c1ccnc(F)c1)[C@H]1O[C@@H]2C[C@@H]1O (racemic) [Example 6, rac-(1R,2R,4S,5R,6S)—N-(6-cyclopropyl-4-(trifluoromethyl)pyridin-2-yl)-4-(2-fluoropyridin-4-yl)-6-hydroxy-8-oxatricyclo[3.2.1.02,4]octane-2-carboxamide] | > 30 | 9 | – | – |
| COc1cc([C@@]23C[C@]2(C(=O)Nc2cc(C(F)(F)F)cc(Cl)n2)[C@H]2C[C@H](O)[C@@H]3O2)ccn1 (racemic) [Example 21, rac-(1R,2R,4S,5R,6S)—N-(6-chloro-4-(trifluoromethyl)pyridin-2-yl)-6-hydroxy-4-(2-methoxypyridin-4-yl)-8-oxatricyclo[3.2.1.02,4]octane-2-carboxamide] | > 30 | 0 | – | – |
| COc1cc([C@@]23C[C@]2(C(=O)Nc2cc(C(F)(F)F)cc(C)n2)[C@H]2C[C@H](O)[C@@H]3O2)ccn1 (racemic) [Example 24, rac-(1R,2R,4S,5R,6S)-6-hydroxy-4-(2-methoxypyridin-4-yl)-N-(6-methyl-4-(trifluoromethyl)pyridin-2-yl)-8-oxatricyclo[3.2.1.02,4]octane-2-carboxamide] | > 30 | 25 | – | – |
| O=C(Nc1ccc(F)c(C(F)(F)F)c1)[C@]12C[C@@]1(c1ccnc(F)c1)[C@H]1O[C@@H]2C[C@@H]1O (racemic) [Example 15, rac-(1R,2R,4S,5R,6S)—N-(4-fluoro-3-(trifluoromethyl)phenyl)-4-(2-fluoropyridin-4-yl)-6-hydroxy-8-oxatricyclo[3.2.1.02,4]octane-2-carboxamide] | > 30 | 5 | – | – |
| CCOc1cc(C(F)(F)F)cc(NC(=O)[C@]23C[C@@]2(c2cn(C)nc2C(F)(F)F)[C@H]2O[C@@H]3C[C@@H]2O)n1 (racemic) [Example 48, rac-(1R,2R,4S,5R,6S)—N-(6-ethoxy-4-(trifluoromethyl)pyridin-2-yl)-6-hydroxy-4-(1-methyl-3-(trifluoromethyl)-1H-pyrazol-4-yl)-8-oxatricyclo[3.2.1.02,4]octane-2-carboxamide] | > 30 | 40 | – | – |
| COc1cc([C@@]23C[C@]2(C(=O)Nc2cc(C(F)(F)F)cc(C4CC4)n2)[C@H]2C[C@H](O)[C@@H]3O2)ccn1 (racemic) [Example 23, rac-(1R,2R,4S,5R,6S)—N-(6-cyclopropyl-4-(trifluoromethyl)pyridin-2-yl)-6-hydroxy-4-(2-methoxypyridin-4-yl)-8-oxatricyclo[3.2.1.02,4]octane-2-carboxamide] | > 30 | 4 | – | – |
| Cn1cc([C@@]23C[C@]2(C(=O)Nc2ccc(F)c(C(F)(F)F)c2)[C@H]2C[C@H](O)[C@@H]3O2)c(C(F)(F)F)n1 (racemic) [Example 55, rac-(1R,2R,4S,5R,6S)-N-(4-fluoro-3-(trifluoromethyl)phenyl)-6-hydroxy-4-(1-methyl-3-(trifluoromethyl)-1H-pyrazol-4-yl)-8-oxatricyclo[3.2.1.02,4]octane-2-carboxamide] | > 30 | 14 | – | – |
| COc1cc([C@@]23C[C@]2(C(=O)Nc2cc(C(F)(F)F)ccn2)[C@H]2C[C@H](O)[C@@H]3O2)ccn1 (racemic) [Example 20, rac-(1R,2R,4S,5R,6S)-6-hydroxy-4-(2-methoxypyridin-4-yl)-N-(4-(trifluoromethyl)pyridin-2-yl)-8-oxatricyclo[3.2.1.02,4]octane-2-carboxamide] | > 30 | 24 | – | – |
